The source of these data is article PMC10976246, “Amide-to-Triazole Switch in Somatostatin-14-Based Radioligands: Impact on Receptor Affinity and In Vivo Stability” (Pharmaceutics, 2024).

Data set [1] has as its target T1, hSST3R (Homo sapiens, UniProt P32745).
T1 construct: S. Schultz (Jena, Germany); host or cells: HEK293
Nature of the data set: Competition binding against [125I][I-Tyr25]LTT-SST-28, HEK293-SST3R cell membranes. As to conditions: vs [125I][I-Tyr25]LTT-SST-28, 1 h at 22 °C, mean ± sd.
Experimental: After an incubation period of 1 h at 22 °C, the reaction was stopped by dilution with ice-cold washing buffer (10 mM HEPES at pH 7.4, 150 mM NaCl, 3 mL). The samples were filtered through 1%PEI presoaked glass fiber filters using a Brandel® cell harvester. After thorough washing with ice-cold washing buffer (2 × 3 mL), the filters were collected and measured in the γ-counter.

Data set [2] is described as follows: in vitro. As to conditions: human, plasma. Type of data set: in vitro ADME. How it is done: Plasma stability studies were conducted in vitro by incubating the radioligands (in 100 µL PBS) in 1400 µL of human blood plasma (H4522–20ML, Sigma-Aldrich, Vienna, Austria) to a final concentration of 250 nM (approximately 5 MBq). After an incubation period of 6 h at 37 °C, aliquots of 100 µL were mixed with 100 µL of MeCN for protein precipitation. The mixtures were vortexed and centrifuged for 10 min (15,000× g) at 5 °C and the supernatants were collected. The supernatants (50 µL) were mixed with 0.1% aqueous TFA (50 µL) for posterior γ-HPLC analyses on a Chromolith® RP-18 performance column (2 µm, 4.6 mm × 100 mm; Merck Millipore, Vienna, Austria) eluted at a flow rate of 3 mL/min with the linear gradient from 90% A/10% B to 50% A/50% B in 14 min (A: 0.1% aqueous TFA and B: MeCN) (n = 2).

Data set [3] concerns the target T2, SST2R-expressing AR42J cells (Rattus norvegicus, UniProt P30680).
T2 construct: The SST2R-expressing rat pancreatic cells (AR42J) were cultured; host or cells: AR42J rat pancreatic cells
In words: Receptor saturation binding assay in AR42J cells. As to conditions: 2 h, n = 2–3 in triplicates.
Experimental: AR42J cells were seeded in six-well plates (1 × 10^6 cells/well) 2 days before the assay. One hour prior to the experiment, the medium was removed, the cells were washed with PBS (1 mL) and fresh assay medium (DMEM with Glutamax-1 and supplemented with 1% FBS (v/v)) was added (1.3 mL/well). […] The determination of the unspecific binding was conducted by incubating each test radioligand in the presence of excess TATE, which was added in 100 μL of PBS to a final concentration of 5 µM. The six-well plates were incubated under standard culturing conditions for 2 h; the medium was removed, the cells were washed with PBS (2 × 1 mL) and lysed as described above. The cell lysates were collected and measured in the γ-counter.

Data set [4] deals with HEK293-hSST2R xenografts. As to conditions: male, SCID, mouse, in vivo, iv, 3 nmol, 4 h.
Data set [5] in a line: in vivo. As to conditions: male, SCID, mouse, iv, 3 nmol, total radioactivity.

Numbered stars: 1 amine (or outer) side, 2 acyl side, 3 side chain; on linkers, the order of the positions; unused ones are H or OH. Bridge positions count the residues as written; N and C are the ends. Square brackets hold non-standard residues; d marks the D form. Peptide text beside a SMILES is read from it. * marks the point of attachment. X2 = O=C([C@H](Cc1ccccc1)n1cc([C@H](Cc2ccccc2)N[*:1])nn1)[*:2]; X1 = NC(=O)C[C@H](N[*:1])c1cn([C@@H](Cc2ccccc2)C(=O)[*:2])nn1; DOTA = O=C(O)CN1CCN(CC(=O)O)CCN(CC(=O)*)CCN(CC(=O)O)CC1

T2 sequence (P30680 whole entry): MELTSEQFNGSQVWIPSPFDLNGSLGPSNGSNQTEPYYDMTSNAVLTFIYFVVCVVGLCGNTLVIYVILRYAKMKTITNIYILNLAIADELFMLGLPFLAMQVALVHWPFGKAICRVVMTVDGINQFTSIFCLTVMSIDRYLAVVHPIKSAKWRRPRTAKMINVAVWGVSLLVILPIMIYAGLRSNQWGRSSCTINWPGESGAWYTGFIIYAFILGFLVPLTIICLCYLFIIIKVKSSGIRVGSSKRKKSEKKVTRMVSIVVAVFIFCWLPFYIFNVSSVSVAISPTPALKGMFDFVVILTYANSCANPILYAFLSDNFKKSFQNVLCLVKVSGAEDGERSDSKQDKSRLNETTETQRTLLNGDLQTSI
T1 sequence (P32745 whole entry): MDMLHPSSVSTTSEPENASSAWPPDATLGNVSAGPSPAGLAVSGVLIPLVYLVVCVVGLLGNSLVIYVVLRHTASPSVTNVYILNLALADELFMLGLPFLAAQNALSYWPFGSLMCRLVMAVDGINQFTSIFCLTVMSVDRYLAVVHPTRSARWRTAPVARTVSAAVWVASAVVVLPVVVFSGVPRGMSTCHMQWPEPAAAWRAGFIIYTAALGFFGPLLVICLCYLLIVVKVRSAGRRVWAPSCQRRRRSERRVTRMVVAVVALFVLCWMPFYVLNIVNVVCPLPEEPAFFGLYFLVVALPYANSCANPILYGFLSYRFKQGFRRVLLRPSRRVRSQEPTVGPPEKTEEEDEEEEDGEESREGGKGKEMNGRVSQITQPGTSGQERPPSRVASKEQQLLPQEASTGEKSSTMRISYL

In the case of `C[C@H](NC(=O)CN1CCN(CC(=O)O)CCN(CC(=O)O)CCN(CC(=O)O)CC1)C(=O)NCC(=O)N[C@H]1CSSC[C@@H](C(=O)O)NC(=O)[C@H](CO)NC(=O)[C@H]([C@@H](C)O)NC(=O)[C@H](Cc2ccccc2)NC(=O)[C@H]([C@@H](C)O)NC(=O)[C@H](CCCCN)NC(=O)[C@@H](Cc2c[nH]c3ccccc23)NC(=O)[C@H](Cc2ccccc2)NC(=O)[C@H](Cc2ccccc2)n2cc(nn2)[C@H](CC(N)=O)NC(=O)[C@H](CCCCN)NC1=O` [XG1, [DOTA,Asn^5-Ψ[Tz]-Phe^6, D-Trp^8]SST-14] ({DOTA}-AGCK[X1]F[dW]KTFTSC-OH; disulfide 3-13), the concentration for half-maximal inhibition (IC50) in data set [1] is 3 ± 0.9 nM.

In data set [2], `C[C@H](NC(=O)CN1CCN(CC(=O)O)CCN(CC(=O)O)CCN(CC(=O)O)CC1)C(=O)NCC(=O)N[C@H]1CSSC[C@@H](C(=O)O)NC(=O)[C@H](CO)NC(=O)[C@H]([C@@H](C)O)NC(=O)[C@H](Cc2ccccc2)NC(=O)[C@H]([C@@H](C)O)NC(=O)[C@H](CCCCN)NC(=O)[C@@H](Cc2c[nH]c3ccccc23)NC(=O)[C@H](Cc2ccccc2)NC(=O)[C@H](Cc2ccccc2)NC(=O)[C@H](CC(N)=O)NC(=O)[C@H](CCCCN)NC1=O` [[^111In]In-AT2S, metal not drawn, reference compound] showed an amount remaining at 6 h, 250 nM of more than 90%. This compound also showed a dissociation constant Kd in data set [3] of 12 ± 3.88 nM.

On to `C[C@H](NC(=O)CN1CCN(CC(=O)O)CCN(CC(=O)O)CCN(CC(=O)O)CC1)C(=O)NCC(=O)N[C@H]1CSSC[C@@H](C(=O)O)NC(=O)[C@H](CO)NC(=O)[C@H]([C@@H](C)O)NC(=O)[C@H](Cc2ccccc2)NC(=O)[C@H]([C@@H](C)O)NC(=O)[C@H](CCCCN)NC(=O)[C@@H](Cc2c[nH]c3ccccc23)NC(=O)[C@H](Cc2ccccc2)NC(=O)[C@H](Cc2ccccc2)n2cc(nn2)[C@H](CC(N)=O)NC(=O)[C@H](CCCCN)NC1=O` [[^111In]In-XG1, metal not drawn] ({DOTA}-AGCK[X1]F[dW]KTFTSC-OH; disulfide 3-13), for which, in data set [2], the fraction remaining at 6 h, 250 nM is more than 90%. This compound also gave a kidney uptake in data set [4] of more than 200 % IA/g. Also, the tissue uptake at 4 h in data set [5] (HEK293-hSST2R tumor uptake) stood at 1.61 %ID/g; in data set [5] (kidney uptake), 310 %ID/g; in data set [5] (wtHEK293 (SST2R-negative) control tumor uptake), 0.56 %ID/g.

`C[C@H](NC(=O)CN1CCN(CC(=O)O)CCN(CC(=O)O)CCN(CC(=O)O)CC1)C(=O)NCC(=O)N[C@H]1CSSC[C@@H](C(=O)O)NC(=O)[C@H](CO)NC(=O)[C@H]([C@@H](C)O)NC(=O)[C@H](Cc2ccccc2)NC(=O)[C@H]([C@@H](C)O)NC(=O)[C@H](CCCCN)NC(=O)[C@@H](Cc2c[nH]c3ccccc23)NC(=O)[C@H](Cc2ccccc2)n2cc(nn2)[C@H](Cc2ccccc2)NC(=O)[C@H](CC(N)=O)NC(=O)[C@H](CCCCN)NC1=O` [[^111In]In-XG2, metal not drawn] ({DOTA}-AGCKN[X2][dW]KTFTSC-OH; disulfide 3-13) showed a dissociation constant Kd in data set [3] of more than 50 nM.
